The source of these data is ChEMBL document CHEMBL3044564, “Synthesis and antihypertensive activity evaluation in spontaneously hypertensive rats of lacidipine analogues” (2012).

The test system of assay [1] is Rattus norvegicus. In words: Antihypertensive activity in spontaneously hypertensive Rattus norvegicus (rat) assessed as reduced systolic blood pressure at 1 mg/kg intragastrically administered. The format is functional, Artery. The settings on record: route intragastric.
In assay [2] the test system is Rattus norvegicus. Put plainly: Antihypertensive activity in spontaneously hypertensive Rattus norvegicus (rat) assessed as reduced systolic blood pressure at 2 mg/kg intragastrically administered measured at 20 hr post compound treatment (reference value: -2 +/- 4 mmHg). It is filed as functional, Artery. The settings on record: route intragastric.
In assay [3] the test system is Rattus norvegicus. In words: Antihypertensive activity in spontaneously hypertensive Rattus norvegicus (rat) assessed as reduced systolic blood pressure at 2 mg/kg intragastrically administered measured at 8 hr post compound treatment (reference value: -3 +/- 3 mmHg). The format is functional, Artery. The settings on record: route intragastric.
Assay [4] deals with Rattus norvegicus. In words: Antihypertensive activity in spontaneously hypertensive Rattus norvegicus (rat) assessed as reduced systolic blood pressure at 2 mg/kg intragastrically administered measured at 6 hr post compound treatment (reference value: -2 +/- 3 mmHg). It is filed as functional, Artery. The settings on record: route intragastric.
In assay [5] the test system is Rattus norvegicus. In words: Antihypertensive activity in spontaneously hypertensive Rattus norvegicus (rat) assessed as reduced systolic blood pressure at 2 mg/kg intragastrically administered measured at 4 hr post compound treatment (reference value: -1 +/- 3 mmHg). As to conditions: route intragastric. The format is functional, Artery.
The subject of assay [6] is Rattus norvegicus. In words: Antihypertensive activity in spontaneously hypertensive Rattus norvegicus (rat) assessed as reduced systolic blood pressure at 2 mg/kg intragastrically administered measured at 2 hr post compound treatment (reference value: -1 +/- 2 mmHg). The format is functional, Artery. As to conditions: route intragastric.
Assay [7] has as its system Rattus norvegicus. In words: Antihypertensive activity in spontaneously hypertensive Rattus norvegicus (rat) assessed as reduced systolic blood pressure at 2 mg/kg intragastrically administered measured at 1 hr post compound treatment (reference value: 1 +/- 3 mmHg). It is filed as functional, Artery. The settings on record: route intragastric.
Assay [8] deals with Rattus norvegicus. Put plainly: Antihypertensive activity in spontaneously hypertensive Rattus norvegicus (rat) assessed as reduction in systolic blood pressure compound intragastrically administered measured at 1 to 20 hr post compound treatment. The format is functional, organism-based. The settings on record: Artery.
Assay [9] relates to Rattus norvegicus. Put plainly: Antihypertensive activity in spontaneously hypertensive Rattus norvegicus (rat) assessed as reduced systolic blood pressure at 1 mg/kg intragastrically administered measured at 6 hr post compound treatment (reference value: -2 +/- 3 mmHg). As to conditions: route intragastric. It is filed as functional, Artery.
Assay [10] has as its system Rattus norvegicus. Put plainly: Antihypertensive activity in spontaneously hypertensive Rattus norvegicus (rat) assessed as reduced systolic blood pressure at 1 mg/kg intragastrically administered measured at 4 hr post compound treatment (reference value: -1 +/- 3 mmHg). The format is functional, Artery. As to conditions: route intragastric.
In assay [11] the test system is Rattus norvegicus. Put plainly: Antihypertensive activity in spontaneously hypertensive Rattus norvegicus (rat) assessed as reduced systolic blood pressure at 1 mg/kg intragastrically administered measured at 2 hr post compound treatment (reference value: -1 +/- 2 mmHg). It is filed as functional, Artery. The settings on record: route intragastric.
Assay [12] has as its system Rattus norvegicus. In words: Antihypertensive activity in spontaneously hypertensive Rattus norvegicus (rat) assessed as reduced systolic blood pressure at 1 mg/kg intragastrically administered measured at 1 hr post compound treatment (reference value: 1 +/- 3 mmHg). It is filed as functional, Artery. As to conditions: route intragastric.
For assay [13], the system named is Rattus norvegicus. Put plainly: Antihypertensive activity in spontaneously hypertensive Rattus norvegicus (rat) assessed as reduced systolic blood pressure at 0.5 mg/kg intragastrically administered measured at 1 hr post compound treatment (reference value: 1 +/- 3 mmHg). The format is functional, Artery. The settings on record: route intragastric.

For `CCOC(=O)C1=C(C)NC(C)=C(C(=O)OCC)C1c1ccccc1/C=C/C(=O)NC(C)(C)C`, in the assay on Rattus norvegicus [1], the Activity turned out to be 44 mmHg.

As to `CCOC(=O)C1=C(C)NC(C)=C(C(=O)OCC)C1c1ccccc1/C=C/C(=O)NCC(C)C`, in the assay on Rattus norvegicus [1], the Activity turned out to be 15 mmHg.

For the compound `CCOC(=O)C1=C(C)NC(C)=C(C(=O)OCC)C1c1ccccc1/C=C/C(=O)N1CCCCC1`, the Activity in the assay on Rattus norvegicus [1] is 22 mmHg.

Turning to `CCOC(=O)C1=C(C)NC(C)=C(C(=O)OCC)C1c1ccccc1/C=C/C(=O)N(CC)CC`, the Activity in the assay with Rattus norvegicus [1] was found to be 33 mmHg.

Regarding `CCOC(=O)C1=C(C)NC(C)=C(C(=O)OCC)C1c1ccccc1/C=C/C(=O)N(C)C(C)(C)C`, the Activity in the assay on Rattus norvegicus [2] is given as 25 mmHg; with Rattus norvegicus [3], 43 mmHg; with Rattus norvegicus [4], 45 mmHg; in the assay with Rattus norvegicus [5] it was 47 mmHg; in the assay with Rattus norvegicus [6], 53 mmHg; in the assay with Rattus norvegicus [7], 44 mmHg. In addition, the Activity entry with Rattus norvegicus [8] is “Dose-dependent effect”; in the assay on Rattus norvegicus [9], 3 mmHg; in the assay with Rattus norvegicus [10], 20 mmHg; with Rattus norvegicus [11] it was 34 mmHg; with Rattus norvegicus [12], 46 mmHg; in the assay on Rattus norvegicus [13], 11 mmHg. The Activity in the assay on Rattus norvegicus [1] is given as 46 mmHg.

Take `CCCCN(C)C(=O)/C=C/c1ccccc1C1C(C(=O)OCC)=C(C)NC(C)=C1C(=O)OCC`: the Activity in the assay with Rattus norvegicus [1] is given as 27 mmHg.

`CCOC(=O)C1=C(C)NC(C)=C(C(=O)OCC)C1c1ccccc1/C=C/C(=O)OC(C)(C)C` [LACIDIPINE]: in the assay with Rattus norvegicus [1], the Activity is given as 50 mmHg.
